The series concerns CCRIS mutagenicity, Ames/micronucleus/aberration tests. Description: CCRIS mutagenicity studies.
[1] abbreviates: Test System: AMES SALMONELLA TYPHIMURIUM, Strain/Indicator: TA98, Metabolic Activation: NONE, Method: STANDARD PLATE.
Setting [2] is: Test System: AMES SALMONELLA TYPHIMURIUM, Strain/Indicator: TA100, Metabolic Activation: NONE, Method: STANDARD PLATE.
[3] abbreviates: Test System: AMES SALMONELLA TYPHIMURIUM, Strain/Indicator: TA100, Metabolic Activation: NONE, Method: PREINCUBATION
Setting [4] is: Test System: AMES SALMONELLA TYPHIMURIUM, Strain/Indicator: TA1535, Metabolic Activation: HAMSTER, LIVER, S-9, AROCLOR 1254, Method: STANDARD PLATE.
Where [5] appears, read: Test System: AMES SALMONELLA TYPHIMURIUM, Strain/Indicator: TA1535, Metabolic Activation: NONE, Method: STANDARD PLATE.
Setting [6] is: Test System: AMES SALMONELLA TYPHIMURIUM, Strain/Indicator: TA98, Metabolic Activation: RAT, LIVER, S-9, AROCLOR 1254, Method: STANDARD PLATE.
The mark [7] stands for this setting: Test System: AMES SALMONELLA TYPHIMURIUM, Strain/Indicator: TA100, Metabolic Activation: RAT, LIVER, S-9, AROCLOR 1254, Method: STANDARD PLATE.

Activity calls are given as the source filed them. The rule behind the calls is not given here.

On to `O=[N+]([O-])c1ccc2ccc3ccccc3c2c1`, for which the mutagenic call by setting is: (Test System: AMES SALMONELLA TYPHIMURIUM, Strain/Indicator: TA98(1,8-DNP6), Metabolic Activation: NONE, Method: STANDARD PLATE) “active; positive”; (Test System: AMES SALMONELLA TYPHIMURIUM, Strain/Indicator: TA98(NR), Metabolic Activation: NONE, Method: STANDARD PLATE) “active; positive”; under setting [1], “active; positive”; under setting [2], “active; positive”; (Test System: AMES SALMONELLA TYPHIMURIUM, Strain/Indicator: TA7001, Metabolic Activation: NONE, Method: PREINCUBATION) “active; positive”; (Test System: AMES SALMONELLA TYPHIMURIUM, Strain/Indicator: TA7002, Metabolic Activation: NONE, Method: PREINCUBATION) “active; positive”. In addition, the mutagenic call is, setting by setting: (Test System: AMES SALMONELLA TYPHIMURIUM, Strain/Indicator: TA7003, Metabolic Activation: NONE, Method: PREINCUBATION) “active; positive”; (Test System: AMES SALMONELLA TYPHIMURIUM, Strain/Indicator: TA7004, Metabolic Activation: NONE, Method: PREINCUBATION) “active; positive”; (Test System: AMES SALMONELLA TYPHIMURIUM, Strain/Indicator: TA7005, Metabolic Activation: NONE, Method: PREINCUBATION) “active; positive”; (Test System: AMES SALMONELLA TYPHIMURIUM, Strain/Indicator: TA7006, Metabolic Activation: NONE, Method: PREINCUBATION) “active; positive”; (Test System: AMES SALMONELLA TYPHIMURIUM, Strain/Indicator: YG1021, Metabolic Activation: NONE, Method: STANDARD PLATE) “active; positive”; (Test System: AMES SALMONELLA TYPHIMURIUM, Strain/Indicator: YG1024, Metabolic Activation: NONE, Method: STANDARD PLATE) “active; positive”. For the same molecule, the mutagenic call (Test System: AMES SALMONELLA TYPHIMURIUM, Strain/Indicator: YG1026, Metabolic Activation: NONE, Method: STANDARD PLATE) is “active; positive” and the mutagenic call (Test System: AMES SALMONELLA TYPHIMURIUM, Strain/Indicator: YG1029, Metabolic Activation: NONE, Method: STANDARD PLATE) was “active; positive”.

On to `ClC[C@@H]1CO1`, for which the mutagenic call by setting is: under setting [3], “active; positive”; under setting [2], “active; positive”; (Test System: AMES SALMONELLA TYPHIMURIUM, Strain/Indicator: TA100, Metabolic Activation: RAT, LIVER, S-9, PCB, Method: PREINCUBATION) “active; positive”.

For `COc1cccc(CN(C)N=O)c1`, the mutagenic call is, setting by setting: under setting [4], “active; positive”; under setting [5], “inactive; negative”.

`Nc1ncnc2c1ncn2[C@H]1CC[C@@H](CO)O1`: the mutagenic call was “inactive; negative” (Test System: AMES SALMONELLA TYPHIMURIUM, Strain/Indicator: TA98, Metabolic Activation: HAMSTER, LIVER, S-9, AROCLOR 1254, Method: STANDARD PLATE); “inactive; negative” under setting [1]; “inactive; negative” under setting [6]; “inactive; negative” (Test System: AMES SALMONELLA TYPHIMURIUM, Strain/Indicator: TA100, Metabolic Activation: HAMSTER, LIVER, S-9, AROCLOR 1254, Method: STANDARD PLATE); “inactive; negative” under setting [2]; “inactive; negative” under setting [7]. Further, the mutagenic call is “inactive; negative” under setting [4]; “inactive; negative” under setting [5]; “inactive; negative” (Test System: AMES SALMONELLA TYPHIMURIUM, Strain/Indicator: TA1535, Metabolic Activation: RAT, LIVER, S-9, AROCLOR 1254, Method: STANDARD PLATE); “inactive; negative” (Test System: AMES SALMONELLA TYPHIMURIUM, Strain/Indicator: TA1537, Metabolic Activation: HAMSTER, LIVER, S-9, AROCLOR 1254, Method: STANDARD PLATE); “inactive; negative” (Test System: AMES SALMONELLA TYPHIMURIUM, Strain/Indicator: TA1537, Metabolic Activation: NONE, Method: STANDARD PLATE); “inactive; negative” (Test System: AMES SALMONELLA TYPHIMURIUM, Strain/Indicator: TA1537, Metabolic Activation: RAT, LIVER, S-9, AROCLOR 1254, Method: STANDARD PLATE). Moreover, the mutagenic call (Test System: AMES SALMONELLA TYPHIMURIUM, Strain/Indicator: TA1538, Metabolic Activation: HAMSTER, LIVER, S-9, AROCLOR 1254, Method: STANDARD PLATE) was “inactive; negative”; the mutagenic call (Test System: AMES SALMONELLA TYPHIMURIUM, Strain/Indicator: TA1538, Metabolic Activation: NONE, Method: STANDARD PLATE) was “inactive; negative”; the mutagenic call (Test System: AMES SALMONELLA TYPHIMURIUM, Strain/Indicator: TA1538, Metabolic Activation: RAT, LIVER, S-9, AROCLOR 1254, Method: STANDARD PLATE) is “inactive; negative”; the mutagenic call (Test System: MOUSE LYMPHOMA, Strain/Indicator: L5178Y (TK+/TK-), Metabolic Activation: NONE, Method: SUSPENSION/PLATE) is “active; positive. reevaluation of results: positive”; the mutagenic call (Test System: MOUSE LYMPHOMA, Strain/Indicator: L5178Y (TK+/TK-), Metabolic Activation: RAT, LIVER, S-9, AROCLOR 1254, Method: SUSPENSION/PLATE) is “active; positive. reevaluation of results: equivocal”.

Take `CC(C)(C)NCC(O)COc1cccc2c1CC(O)C(O)C2` (centres undefined): the mutagenic call is “inactive; negative” under setting [1]; “inactive; negative” under setting [6]; “inactive; negative” under setting [2]; “inactive; negative” under setting [7]; “inactive; negative” (Test System: UDS HUMAN HEPATOCYTES, Strain/Indicator: THY INCORP, Metabolic Activation: NONE, Method: AUTORADIOGRAPHY); “inactive; negative” (Test System: UDS RAT HEPATOCYTES, Strain/Indicator: THY INCORP, Metabolic Activation: NONE, Method: AUTORADIOGRAPHY).

Take `C=C(C)C(=O)O`: the mutagenic call is “inactive; negative” (Test System: AMES SALMONELLA TYPHIMURIUM, Strain/Indicator: TA98, Metabolic Activation: HAMSTER, LIVER, S-9, AROCLOR 1254, Method: PREINCUBATION); “inactive; negative” (Test System: AMES SALMONELLA TYPHIMURIUM, Strain/Indicator: TA98, Metabolic Activation: NONE, Method: PREINCUBATION); “inactive; negative” (Test System: AMES SALMONELLA TYPHIMURIUM, Strain/Indicator: TA98, Metabolic Activation: RAT, LIVER, S-9, AROCLOR 1254, Method: PREINCUBATION); “inactive; negative” (Test System: AMES SALMONELLA TYPHIMURIUM, Strain/Indicator: TA100, Metabolic Activation: HAMSTER, LIVER, S-9, AROCLOR 1254, Method: PREINCUBATION); “inactive; negative” under setting [3]; “inactive; negative” (Test System: AMES SALMONELLA TYPHIMURIUM, Strain/Indicator: TA100, Metabolic Activation: RAT, LIVER, S-9, AROCLOR 1254, Method: PREINCUBATION). The mutagenic call is “inactive; negative” (Test System: AMES SALMONELLA TYPHIMURIUM, Strain/Indicator: TA1535, Metabolic Activation: HAMSTER, LIVER, S-9, AROCLOR 1254, Method: PREINCUBATION); “inactive; negative” (Test System: AMES SALMONELLA TYPHIMURIUM, Strain/Indicator: TA1535, Metabolic Activation: NONE, Method: PREINCUBATION); “inactive; negative” (Test System: AMES SALMONELLA TYPHIMURIUM, Strain/Indicator: TA1535, Metabolic Activation: RAT, LIVER, S-9, AROCLOR 1254, Method: PREINCUBATION); “inactive; negative” (Test System: AMES SALMONELLA TYPHIMURIUM, Strain/Indicator: TA1537, Metabolic Activation: HAMSTER, LIVER, S-9, AROCLOR 1254, Method: PREINCUBATION); “inactive; negative” (Test System: AMES SALMONELLA TYPHIMURIUM, Strain/Indicator: TA1537, Metabolic Activation: NONE, Method: PREINCUBATION); “inactive; negative” (Test System: AMES SALMONELLA TYPHIMURIUM, Strain/Indicator: TA1537, Metabolic Activation: RAT, LIVER, S-9, AROCLOR 1254, Method: PREINCUBATION).

Source of the values: PubChem BioAssay AID1259407 (Chemical Carcinogenesis Research Information System (CCRIS), 2018).
